Assay results reported in US6380237B1, “Diphenylimidazolines” (Bayer Aktiengesellschaft, priority 1998, dated 2002).

How the values were obtained:
Lucilia cuprina larvae = experiment: Blowfly larvae test/development-inhibitory action; assay type: in vivo; conditions: active compound concentration of 100 ppm; 100% means that none of the flies have hatched
Experimental: Blowfly larvae test/development-inhibitory action
Test animals: Lucilia cuprina larvae
Solvent: Dimethylsulfoxide
20 mg of active compound are dissolved in 1 ml of dimethyl suiphoxide, and more dilute concentrations are prepared by dilution with dist. water.
Approximately 20 Lucilia cuprina larvae are introduced into a test tube which contains approximately 1 cm^3 of horse meat and 0.5 ml of the active compound preparation to be tested. After 24 and 48 hours, the efficacy of the preparation of active compound is determined. The test tubes are transferred into a beaker with sand-covered bottom. After a further 2 days, the test tubes are removed and the pupae are counted.
The effect of the preparation of active compound is assessed by the number of the flies which have hatched after 1.5 times the development time of an untreated control. 100% means that none of the flies have hatched; 0% means that all flies have hatched normally.

[1] = tested on: all stages of the greenhouse red spider mite (Tetranychus urticae); experiment: Tetranychus test (OP-resistant/dip treatment); assay type: in vivo
Experimental: Tetranychus test (OP-resistant/dip treatment)
(§1) Solvent: 7 parts by weight of dimethylformamide
(§2) Emulsifier: 1 part by weight of alkylaryl polyglycol ether
To produce a suitable preparation of active compound, 1 part by weight of active compound is mixed with the stated amount of solvent and emulsifier, and the concentrate is diluted with emulsifier-containing water to the desired concentration.
Bean plants (Phaseolus vulgaris) which are heavily infested by all stages of the greenhouse red spider mite (Tetranychus urticae) are dipped into a preparation of active compound of the desired concentration.
After the desired period of time, the effect in % is determined. 100% means that all spider mites have been killed, 0% means that none of the spider mites have been killed.

[2] = tested on: caterpillars of the army worm (Spodoptera frugiperda); experiment: Spodoptera frugiperda test; assay type: in vivo; conditions: active compound concentration of 0.1%, after 7 days, dipped cabbage leaves
Experimental: Spodoptera frugiperda test
as §1, §2
To prepare a suitable preparation of active compound, 1 part by weight of active compound is mixed with the stated amount of solvent and emulsifier, and the concentrate is diluted with water to the desired concentration.
Cabbage leaves (Brassica oleracea) are treated by being dipped into the preparation of active compound of the desired concentration and populated with caterpillars of the army worm (Spodoptera frugiperda) while the leaves are still moist.
After the desired period of time, the kill in % is determined. 100% means that all caterpillars have been killed; 0% means that none of the caterpillars have been killed.

[3] = tested on: mustard beetle larvae (Phaedon cochleariae); experiment: Phaedon larvae test; assay type: in vivo; conditions: active compound concentration of 0.1%, after 7 days, dipped cabbage leaves
Experimental: Phaedon larvae test Solvent: 7 parts by weight of dimethylfornamide Emulsifier: 1 part by weight of alkylaryl polyglycol ether To produce a suitable preparation of active compound, 1 part by weight of active compound is mixed with the stated amount of solvent and emulsifier, and the concentrate is diluted with water to the desired concentration. Cabbage leaves (Brassica oleracea) are treated by being dipped into the preparation of active compound of the desired concentration and populated with mustard beetle larvae (Phaedon cochleariae) while the leaves are still moist.

[4] = active compound concentration of 0.01%, after 7 days, dipped bean plants

| Compound | efficacy (Lucilia cuprina larvae) [%] | melting point [°C] | kill ([1]; 168 h) [%] | kill [2] [%] | kill [3] [%] | kill [1, 4] [%] |
| --- | --- | --- | --- | --- | --- | --- |
| CCOC(=O)N1CC(c2ccc(-c3ccc(OC(F)(F)F)cc3)cc2)N=C1c1c(F)cccc1F (stereo not drawn) [Example I-3, 1-ethoxycarbonyl4-(4′-trifluoromethoxy-4-biphenylyl)-2-(2,6-difluoro-phenyl)-4,5-dihydro-1H-imidazole] | 100 | 105 to 107 | 100 | 100 |  |  |
| CCOC(=O)N1CC(c2ccc(-c3ccc(OC(F)(F)F)cc3)cc2)N=C1c1ccccc1Cl (stereo not drawn) [Example I-4, 2-(2-chlorophenyl)-1-ethoxycarbonyl-4-(4′-trifluormethoxy-4-biphenylyl)-4,5-dihydro-1H-imidazole] |  |  |  | 100 | 100 |  |
| N#CN1CC(c2ccc(-c3ccc(OC(F)(F)F)cc3)cc2)N=C1c1c(F)cccc1F (stereo not drawn) [Example I-5a, 1-cyano-4-(4′-trifluoromethoxy-4-biphenylyl)-2-(2,6-difluorophenyl)-4,5-dihydro-1H-imidazole] |  | 123 to 124 |  | 100 | 100 | 100 |
| N#CN1C(c2c(F)cccc2F)=NCC1c1ccc(-c2ccc(OC(F)(F)F)cc2)cc1 (stereo not drawn) [Example I-5b, 3-cyano-4-(4′-trifluoromethoxy-4-biphenylyl)-2-(2,6-difluorophenyl)-4,5-dihydro-3H-imidazole] |  |  |  | 100 | 100 | 100 |
| CCOCN1CC(c2ccc(-c3ccc(OC(F)(F)F)cc3)cc2)N=C1c1c(F)cccc1F (stereo not drawn) [Example I-6a, 1-ethoxymethyl-4-(4′-trifluoromethoxy-4-biphenylyl)-2-(2,6-difluorophenyl)-4,5-di-hydro-1H-imidazole] |  |  |  | 100 | 100 | 100 |
| CCOCN1C(c2c(F)cccc2F)=NCC1c1ccc(-c2ccc(OC(F)(F)F)cc2)cc1 (stereo not drawn) [Example I-6b, 3-ethoxymethyl-4-(4′-trifluoromethoxy-4-biphenylyl)-2-(2,6-difluorophenyl)-4,5-di-hydro-3H-imidazole] |  |  |  |  | 100 |  |
| CC(=O)N1CC(c2ccc(-c3ccc(OC(F)(F)F)cc3)cc2)N=C1c1c(F)cccc1F (stereo not drawn) [Example I-7a, 1-acetyl-4-(4′-trifluoromethoxy-4-biphenylyl)-2-(2,6-difluorophenyl)-4,5-dihydro-1H-imidazole] |  |  |  | 100 | 90 | 100 |
| NC(=S)N1CC(c2ccc(-c3ccc(OC(F)(F)F)cc3)cc2)N=C1c1c(F)cccc1F (stereo not drawn) [Example I-8, 4-(4′-trifluoromethoxy4-biphenylyl)-2-(2,6-difluorophenyl)-1-thiocarbamoyl-4,5-dihydro-1H-imidazole] |  | 93 to 95 |  | 100 | 100 | 95 |
